Reference: patent US6559288B1, “Ninjurin” (Washington University, priority 1996, dated 2003)
Where no end group is shown, it is not given here.

Experiments:
[1] = system: ninjurin-expressing Jurkat cell transfectants; test: Inhibition by synthetic peptides of ninjurin-mediated aggregation of ninjurin-expressing Jurkat cell transfectants; type: cell-based; details: for inhibition of ninjurin-mediated adhesion relative to wild type peptide 6: single amino acid substitutions in residues 26 to 37, dose-dependent test
Protocol: (§1) Cell adhesion assays. […] Aggregation assays were performed using Jurkat cells (Shimizu et al., (1990) Nature 345, 250-253) stably transfected with pCMV-ninjurin or pCMVneo (nonrecombinant control). The cells were washed twice with RPMI 1640 containing 5 mM Hepes buffer, suspended to a concentration of 2×10^6 cells/ml in RPMI1640 with 10% FCS, and 100 μl of the cell suspension were added to each well of a flat-bottomed 96-well microtiter plate. The formation of aggregates was examined after 1 hr using phase contrast microscopy. […] The ninjurin positive cells were stained red with 1 mM CMTMR (5-(and-6)-(((4-chloromethyl)benzoyl)amino) tetramethylrhodamine) and control cells were stained green with 1 mM CMFTA (5-chloromethylfluoresceindiacetate) as described in the manufacturer's protocol (Molecular Probes). The cells were resuspended to 1×10^6 cells/ml, and 3 ml of the mixed cell suspension was allowed to form aggregates in 6-well culture plates. The composition of the aggregates was monitored by fluorescence microscopy.
To directly investigate whether the N-terminal extracellular hydrophilic region is responsible for the observed homophilic adhesion, partially overlapping synthetic peptides whose sequences collectively encompass the entire predicted ninjurin extracellular domain were tested for their ability to inhibit the ninjurin-mediated adhesion. Aggregation assays with the ninjurin-expressing Jurkat cell transfectants were performed, and the degree of aggregation was examined after 60 minutes by measuring the number of cells incorporated in aggregates. Peptide 2 inhibited aggregation at a concentration of 0.1 mg/ml, and aggregation was completely abolished at concentrations above 1 mg/ml. In constrast, peptides 1 and 4 had no effect on aggregation at either of these concentrations.
To further delimit the site of interaction, an additional 4 peptides (peptides 5 through 8) were tested for their ability to inhibit ninjurin-mediated aggregation (Data not shown). […] To identify the amino acids most critical for ninjurin-mediated adhesion, peptides (9-15) stretching from residue 26 to 37, each containing single amino acid mutations, were tested in the aggregation assay. The ability of each of these peptides to inhibit ninjurin-mediated adhesion in a dose-dependent manner was examined. The seven residues between prolines 27 and 35 (P27 and P35) were most important.

[2] = system: Jurkat cells; test: Aggregation assay with Jurkat cells stably transfected with pCMV-ninjurin; type: cell-based
Protocol: as §1
Ninjurin mutants fail to support aggregation. […] To investigate these possibilities, Jurkat cell lines expressing ninjurin molecules containing a double mutation (Arg28 to Asn and Asn29 to Ala) in the ninjurin adhesion motif was generated. […]

[3] = system: DRG neurons; test: DRG neuron/CHO cell co-culture neurite outgrowth; type: cell-based, rat; details: for inhibition of the neurite outgrowth promoting effect of ninjurin: peptides 0.5 mg/ml, E17 rat DRG neurons on CHO cells expressing ninjurin
Protocol: Cell culture and transfection. Chinese hamster ovary (CHO) cells were cultured in F-12 medium supplemented with 10% fetal calf serum (FCS). T cell leukemia cells (Jurkat) were grown in RPMI 1640 with 10% FCS. The expression vector pCMV-ninjurin was constructed by inserting the ninjurin cDNA into the plasmid pCMVneo (Brewer, C. B. (1994). Methods in Cell Biol. 43, 233-245). The pCMVneo or pCMV-ninjurin plasmids was transfected into CHO cells via calcium phosphate precipitation and into Jurkat cells via electroporation. Stable transfectants were selected by growth in medium containing G418 (400 μg/ml) and individual clones were isolated by limiting dilution. […] Primary cultures of neurons from dorsal root ganglia (DRG) were prepared from E17 rat embryos as previously described (Eichler et al., (1989) Brain Res 482, 340-346). Dissociated neurons were plated on confluent monolayers of either control CHO cells or CHO cell expressing ninjurin in 24-well plates. Cultures were grown in a medium which consists of 90% Eagles minimal essential medium (Gibco), 10% FCS, 20 μg/ml each of fluoro-deoxyuridine and uridine, and 50 ng/ml mouse NGF (gift from E. Johnson, Washington U.). Six hr after plating, the cells were fixed with 4% paraformaldehyde in PBS, and immunohistochemistry using anti-neurofilament H antibodies was performed. Following previously established criteria (Gennarini et al., (1991) Neuron 6, 595-606), approximately 50 neurites were chosen for measurement which each emerged from a single distinguishable cell body, were longer than the diameter of the neuronal cell body, and were identifiable over their entire length. The length of each neurite was measured after tracing them from the photomicrographs onto grided (2 mm) transparency film. Statistical analysis was performed using Sigma Plot (version 3.0). […]
Ninjurin-stimulated neurite outgrowth is mediated through the adhesion motif. […] The neuronal cultures were treated with peptides (0.5 mg/ml) corresponding to either the native or mutant sequences of the ninjurin adhesion motif, and neurite extension was monitored.

[4] = molecular target: the molecule itself; test: aggregation assay, Jurkat cells stably transfected with pCMV-ninjurin against pCMVneo control
Protocol: as §1, with “250–253)” for “250-253)”, “2 ×10^6” for “2×10^6”, “µl” for “μl”, “1 ×10^6” for “1×10^6”

[5] = system: CHO cells; test: Aggregation assay with ninjurin transfected CHO cells; type: cell-based, Chinese hamster; details: counted at 15 min intervals, 37° C.
Protocol: For aggregation experiments using CHO cells, cells (ninjurin transfected and control) were harvested from confluent plates by treatment with trypsin, washed with F-12 medium, and resuspended at 1×10^6 cells/ml in F-12 with 10% FCS. Aggregation assays were performed on a rotary shaker at 80 rpm. Quantitation of aggregate formation was monitored at 15 min intervals by counting the number of particles using a hemocytometer (Takeichi, M. (1977). J. Cell. Biol. 75, 464-474). The extent of the aggregate formation is inversely proportional to the number of particles, and was determined by calculating an index Nt/No, where Nt and No were the total particle numbers at incubation times t and 0, respectively (Takeichi, 1977). All of the aggregation experiments were performed at 37° C.

[6] = ninjurin-expressing Jurkat transfectants, aggregation examined after 60 minutes

9: residues 26 to 37 with substitution of Arg28 to Asn28 (SEQ ID NO:14) (PPNWGLRNRPIN; Rat) [Peptide 9]
inhibition of ninjurin-mediated adhesion relative to wild type peptide 6 [1]: less active

10: residues 26 to 37 with substitution of Trp29 for Ala29 (SEQ ID NO:15) (PPRAGLRNRPIN; Rat) [Peptide 10]
inhibition of ninjurin-mediated adhesion relative to wild type peptide 6 [1]: less active

11: residues 26 to 37 with substitution of Gly29 to Ala29 (SEQ ID NO:16) (PPRWALRNRPIN; Rat) [Peptide 11]
inhibition of ninjurin-mediated adhesion relative to wild type peptide 6 [1]: did not exhibit altered inhibition

12: residues 26 to 37 with substitution of Leu31 to Asn31 (SEQ ID NO:17) (PPRWGNRNRPIN; Rat) [Peptide 12]
inhibition of ninjurin-mediated adhesion relative to wild type peptide 6 [1]: did not exhibit altered inhibition

13: residues 26 to 37 with substitution of Arg32 for Asn32 (SEQ ID NO:18) (PPRWGLNNRPIN; Rat) [Peptide 13]
inhibition of ninjurin-mediated adhesion relative to wild type peptide 6 [1]: less active

15: residues 26 to 37 with substitution of Arg34 for Asn34 (SEQ ID NO:20) (PPRWGLRNNPIN; Rat) [Peptide 15]
inhibition of ninjurin-mediated adhesion relative to wild type peptide 6 [1]: less active

O=C(O)CN(CCN(CC(=O)O)CC(=O)O)CC(=O)O [EDTA, reference compound]
aggregate formation in the presence of EDTA ([2]; ninjurin-expressing Jurkat cells, 1 mM EDTA): no aggregates were detected

PPRWGLRNRPIN [Peptide 6]
inhibitory activity on ninjurin-mediated aggregation compared with other peptides [1]: comparable to peptides 2 or 3 | concentration at which aggregation was completely abolished [1, 6]: above 2 mg/ml | concentration at which aggregation was inhibited [1, 6]: higher than 0.4 mg/ml | inhibition of the neurite outgrowth promoting effect of ninjurin [3]: inhibited

Peptide 14: residues 26 to 37 with substitution of Asn33 for Leu33 (SEQ ID NO:19) (PPRWGLRLRPIN; Rat)
inhibition of ninjurin-mediated adhesion relative to wild type peptide 6 [1]: more effective | inhibition of ninjurin-mediated adhesion relative to wild type peptide 6 ([1]; listed as Asn-33 to Leu33): greater inhibitory activity than wild type

peptide containing a mutation in this sequence: peptide with a mutant sequence of the ninjurin adhesion motif; which mutation is not stated (PPRWGLRNRPIN; Rat)
inhibition of the neurite outgrowth promoting effect of ninjurin [3]: no significant inhibitory effect

B1: rat ninjurin (other)
chain: MDPGTEEYELNGDLRPGSPGSPDASPPRWGLRNRPINVNHYANKKSAAESMLDIALLMANASQLKAVVEQGNEFAFFVPLVVLISISLVLQIGVGVLLIFLVKYDLNNPAKHAKLDFLNNLATGLVFIIVVVNIFITAFGVQKPVMDVAPRQ
notes: Full-length rat ninjurin (152 amino acids) expressed from pCMV-ninjurin in stably transfected Jurkat or CHO cells; In protein blots and immunoprecipitations it came from cell or tissue lysates; also called rat ninjurin 1; Nerve Injury Induced protein
binding result [4]: binds

B2: ninjurin: Nerve Injury Induced protein, 152 amino acids, rat (SEQ ID NO:4), expressed on transfected cells (protein)
chain: B1 chain
modifications: Rat
average neurite length ([3]; neurons grown for 6 hr on CHO cells expressing ninjurin, approximately 50 neurons): 569±134 μm | aggregate formation ([2]; transfected Jurkat cells, after 1 hr): formation of large aggregates | number of particles (aggregate formation) [5]: decrease in the number of particles with time
